For 42 molecules, IC50 results are on record in patent US20170253607A1, “LONG-ACTING HIV PROTEASE INHIBITOR” (Shionogi & Co., Ltd., priority 2014, published 2017).

Usually pIC50 stands for the IC50 on a negative log10 scale, so that one unit is a factor of ten.

pIC50: −log10 of the molar value.

This assay has as its target HIV-1 PR (Human immunodeficiency virus type 1 group M subtype B, UniProt P04585). Put plainly: HIV-protease inhibitory activity assay (FRET peptide substrate). Format: biochemical. As to conditions: Test Example 1. The method, boiled down:
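Compounds were preincubated with HIV-1 PR (0.83 ng) at room temperature in pH 4.8 NaAc buffer (0.5 M NaCl, EDTA, DTT, Tween 20), then HiLyte Fluor 488/QXL 520 FRET peptide (2 μmol/L final) was added for 60 min. Fluorescence was read at 485/535 nm, and IC50 was fitted by four-parameter logistic regression.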
The molecule `CC(C)CN(CC(O)C(Cc1ccc(OCc2ccccc2-c2ccc3c(c2)C(=O)C(c2ccc(F)cc2)C3=O)cc1)NC(=O)OC1COC2(C)OCCC12)S(=O)(=O)c1ccc2c(c1)OCO2` (stereo not drawn) [Compound I-174] had a negative logarithm of the IC50 (pIC50) of 8.68. The result for `COc1ccc(S(=O)(=O)N(CC(C)C)CC(O)C(Cc2ccc(N3Cc4nc5ccccc5cc4C3=O)cc2)NC(=O)OC2COC3OCCC23)cc1` (stereo not drawn) [Compound I-888] reads 8.68. For the molecule `COc1ccc(S(=O)(=O)N(CC(C)C)CC(O)C(Cc2ccc(NC3CCCc4c(-c5sc6c(c5C(=O)O)CC(C)(C)CC6)cccc43)cc2)NC(=O)OC2COC3(C)OCCC23)cc1` (stereo not drawn) [Compound I-751], the pIC50 was 7.80.

As to `COc1ccc(S(=O)(=O)N(CC(C)C)CC(O)C(Cc2ccc(NCc3ccccc3-c3c(C(=O)O)cnc4sccc34)cc2)NC(=O)OC2COC3(C)OCCC23)cc1` (stereo not drawn) [Compound I-504], the pIC50 is 8.71. The result for `COc1ccc(S(=O)(=O)N(CC(C)C)CC(O)C(Cc2ccc(N(C)CC3=C(c4sc5c(c4C(=O)O)CC(C)(C)CC5)COC3)cc2)NC(=O)OC2COC3(C)OCCC23)cc1` (stereo not drawn) [Compound I-569] reads 8.65; that for `COc1ccc(S(=O)(=O)N(CC(C)C)CC(O)C(Cc2ccc(OCc3ccc4sc(-c5ccc(F)cc5)c(C(=O)O)c4c3)cc2)NC(=O)OC2COC3OCCC23)cc1` (stereo not drawn) [Compound I-819], 9.14. `COc1ccc(S(=O)(=O)N(CC(C)C)CC(O)C(Cc2ccc(N3CCC(C(=O)N(C)c4sc5c(c4C(=O)O)CC(C)(C)CC5)C3)cc2)NC(=O)OC2COC3(C)OCCC23)cc1` (stereo not drawn) [Compound I-646] gave a pIC50 of 8.53.

The molecule `COc1ccc(S(=O)(=O)N(CC(C)C)CC(O)C(Cc2ccc(NCc3ccc(C(=O)Nc4sc5c(c4C(=O)O)CC(C)(C)CC5)o3)cc2)NC(=O)OC2COC3(C)OCCC23)cc1` (stereo not drawn) [Compound I-438] gave a pIC50 of 8.59. In turn, `COc1ccc(S(=O)(=O)N(CC(C)C)CC(O)C(Cc2ccc(NCc3ccccc3-c3ccc4c(c3)cc(C(=O)O)n4C)cc2)NC(=O)OC2COC3(C)OCCC23)cc1` (stereo not drawn) [Compound I-899] gave a pIC50 of 8.84. As to `COc1ccc(S(=O)(=O)N(CC(C)C)CC(O)C(Cc2ccc(NCc3cc(OC(F)(F)F)ccc3-c3sc4c(c3C(=O)O)CC(C)(C)CC4)cc2)NC(=O)OC2COC3(C)OCCC23)cc1` (stereo not drawn) [Compound I-678], the pIC50 is 8.26. `CC(C)CN(CC(O)C(Cc1ccc(OCc2sc(Oc3ccccc3)nc2C(=O)O)cc1)NC(=O)OC1COC2OCCC12)S(=O)(=O)c1ccc2ncsc2c1` (stereo not drawn) [Compound I-818] gave a pIC50 of 9.19. In turn, `COc1ccc(S(=O)(=O)N(CC(C)C)CC(O)C(Cc2ccc(OCc3ccccc3NC(=O)c3cc(Cl)cc(Cl)c3O)cc2)NC(=O)OC2COC3(C)OCCC23)cc1` (stereo not drawn) [Compound I-69] showed a pIC50 of 8.93. Molecule `COc1ccc(S(=O)(=O)N(CC(C)C)CC(O)C(Cc2ccc(OCc3ccccc3-c3ccc4c(c3)C(=O)C(C3CCCCC3)C4=O)cc2)NC(=O)OC2COC3(C)OCCC23)cc1` (stereo not drawn) [Compound I-72] had a pIC50 of 8.84. This pIC50 and that of the molecule before are within 0.2 log units of each other.

In turn, `COc1ccc(S(=O)(=O)N(CC(C)C)CC(O)C(Cc2ccc(NCc3cc(C(=O)Nc4sc5c(c4C(=O)O)CC(C)(C)CC5)n(C)c3)cc2)NC(=O)OC2COC3(C)OCCC23)cc1` (stereo not drawn) [Compound I-445] had a pIC50 of 8.56.

`Cc1cc(OCCNc2nc3ccc(S(=O)(=O)N(CC(C)C)CC(O)C(Cc4ccccc4)NC(=O)OC4COC5(C)OCCC45)cc3s2)ccc1-c1sc2c(c1C(=O)O)CC(C)(C)CC2` (stereo not drawn) [Compound I-797] had a pIC50 of 9.07. This pIC50 is 0.51 log units higher than that of the molecule before. On to `COc1ccc(S(=O)(=O)N(CC(C)C)CC(O)C(Cc2ccc(OCc3ccccc3-c3ccc4c(O)c(-c5ccc(Oc6ccccc6)cc5)c(=O)n(C)c4c3)cc2)NC(=O)OC2COC3OCCC23)cc1` (stereo not drawn) [Compound I-822], for which the pIC50 is 8.68. This pIC50 lies 0.39 log units lower than the previous one. Regarding `COc1ccc(S(=O)(=O)N(CC(C)C)CC(O)C(Cc2ccc(NCc3ccccc3-c3ccccc3C(=O)O)cc2)NC(=O)OC2COC3(C)OCCC23)cc1` (stereo not drawn) [Compound I-497], the pIC50 was 8.71. Molecule `COc1ccc(S(=O)(=O)N(CC(C)C)CC(O)C(Cc2ccc(OCCn3ncc(C(=O)O)c3OC(C)C)cc2)NC(=O)OC2COC3(C)OCCC23)cc1` (stereo not drawn) [Compound I-309] gave a pIC50 of 8.70. In turn, `COc1ccc(S(=O)(=O)N(CC(C)C)CC(O)C(Cc2ccc(NCc3ccc(-c4sc5c(c4C(=O)O)CC(C)(C)CC5)cc3F)cc2)NC(=O)OC2COC3(C)OCCC23)cc1` (stereo not drawn) [Compound I-282] gave a pIC50 of 8.39. `COc1ccc(S(=O)(=O)N(CC(C)C)CC(O)C(Cc2ccc(NCc3cccnc3-c3sc4c(c3C(=O)O)CC(C)(C)CC4)cc2)NC(=O)OC2COC3(C)OCCC23)cc1` (stereo not drawn) [Compound I-128] had a pIC50 of 8.66.

As to `COc1ccc(S(=O)(=O)N(CC(C)C)CC(O)C(Cc2ccc(COC3CCCN3c3ccccc3-c3sc4c(c3C(=O)O)CC(C)(C)CC4)cc2)NC(=O)OC2COC3(C)OCCC23)cc1` (stereo not drawn) [Compound I-103], the pIC50 was 8.43.

The molecule `COc1ccc(S(=O)(=O)N(CC(C)C)CC(O)C(Cc2ccc(OCCNC(=O)C(=NO)c3cc(O)cc(Cl)c3)cc2)NC(=O)OC2COC3(C)OCCC23)cc1` (stereo not drawn) [Compound I-67] showed a pIC50 of 8.73. `COc1ccc(S(=O)(=O)N(CC2CCCC2)CC(O)C(Cc2ccc(OCc3ccccc3-n3nc(C(=O)O)c4c3CCC(C(F)(F)F)C4)cc2)NC(=O)OC2COC3(C)OCCC23)cc1` (stereo not drawn) [Compound I-141] showed a pIC50 of 8.76.

As for `COc1ccc(S(=O)(=O)N(CC(C)C)CC(O)C(Cc2ccc(NCc3cnn4ccc(C(=O)Nc5sc6c(c5C(=O)O)CC(C)(C)CC6)nc34)cc2)NC(=O)OC2COC3(C)OCCC23)cc1` (stereo not drawn) [Compound I-442], the pIC50 is 8.53. For `CC(C)CN(CC(O)C(Cc1ccc(OCc2ccc(C(=O)O)c(-c3ccc(F)cc3F)n2)cc1)NC(=O)OC1COC2(C)OCCC12)S(=O)(=O)c1ccc2ncsc2c1` (stereo not drawn) [Compound I-156] the value was 8.89; for `COc1ccc(S(=O)(=O)N(CC(C)C)CC(O)C(Cc2ccc(NCc3cc(-c4sc5c(c4C(=O)O)CC(C)(C)CC5)co3)cc2)NC(=O)OC2COC3(C)OCCC23)cc1` (stereo not drawn) [Compound I-284], 8.53. With `COc1ccc(S(=O)(=O)N(CC(C)C)C[C@@H](O)[C@H](Cc2ccc(OCc3sc4ccccc4c3C(=O)O)cc2)NC(=O)O[C@H]2CO[C@@]3(C)OCC[C@@H]23)cc1` [Compound I-5], the pIC50 is 8.94. For `COc1ccc(S(=O)(=O)N(CC(C)C)CC(O)C(Cc2ccc(OCc3ccccc3-c3ccc4c(O)c(-c5ccc(Oc6ccccc6)cc5)c(=O)[nH]c4c3)cc2)NC(=O)OC2COC3OCCC23)cc1` (stereo not drawn) [Compound I-821] the value was 8.65; for `COc1ccc(S(=O)(=O)N(CC(C)C)CC(O)C(Cc2ccc(N(C)Cc3nc(N4CCCC4)sc3-c3ccc(-c4sc5c(c4C(=O)O)CC(C)(C)CC5)cc3)cc2)NC(=O)OC2COC3(C)OCCC23)cc1` (stereo not drawn) [Compound I-715], 8.27; for `COc1ccc(S(=O)(=O)N(CC(C)C)CC(O)C(Cc2ccc(NCc3ccccc3-c3ccc4[nH]c(C(=O)O)cc4c3)cc2)NC(=O)OC2COC3(C)OCCC23)cc1` (stereo not drawn) [Compound I-897], 8.61. For `COc1ccc(S(=O)(=O)N(CC(C)C)CC(O)C(Cc2ccc(OCCNc3ccc(C#N)cc3-c3sc4c(c3C(=O)O)CC(C)(C)CC4)cc2)NC(=O)OC2COC3(C)OCCC23)cc1` (stereo not drawn) [Compound I-258], the pIC50 was 8.28.

The molecule `COc1ccc(S(=O)(=O)N(CC(C)C)CC(O)C(Cc2ccc(N(C)C(=O)Nc3ccccc3-c3sc4c(c3C(=O)O)CC(C)(C)CC4)cc2)NC(=O)OC2COC3(C)OCCC23)cc1` (stereo not drawn) [Compound I-269] showed a pIC50 of 8.47. For the molecule `COc1ccc(S(=O)(=O)N(CC(C)C)CC(O)C(Cc2ccc(NCc3ccc(C(=O)N(C)C)cc3-c3sc4c(c3C(=O)O)CC(C)(C)CC4)cc2)NC(=O)OC2COC3(C)OCCC23)cc1` (stereo not drawn) [Compound I-417], the pIC50 was 8.79. `COc1ccc(S(=O)(=O)N(CC(C)C)CC(O)C(Cc2ccc(N3CCN(c4ccccc4-c4sc5c(c4C(=O)O)CC(C)(C)CC5)C3=O)cc2)NC(=O)OC2COC3(C)OCCC23)cc1` (stereo not drawn) [Compound I-390] gave a pIC50 of 8.74.

Molecule `COc1ccc(S(=O)(=O)N(CC(C)C)CC(O)C(Cc2ccc(N(C)Cc3cc(Oc4ccccn4)ccc3-c3sc4c(c3C(=O)O)CC(C)(C)CC4)cc2)NC(=O)OC2COC3(C)OCCC23)cc1` (stereo not drawn) [Compound I-686] gave a pIC50 of 8.44. The molecule `COc1ccc(S(=O)(=O)N(CC(C)C)CC(O)C(Cc2ccc(OC3CCN(c4ccc(C#N)cc4-c4sc5c(c4C(=O)O)CC(C)(C)CC5)C3)cc2)NC(=O)OC2COC3(C)OCCC23)cc1` (stereo not drawn) [Compound I-200] had a pIC50 of 8.29. In the case of `COc1ccc(S(=O)(=O)N(CC(C)C)CC(O)C(Cc2ccc(OCC3CCCN3Cc3sc4c(c3C(=O)O)CC(C)(C)CC4)cc2)NC(=O)OC2COC3(C)OCCC23)cc1` (stereo not drawn) [Compound I-194], the pIC50 was 8.79. The molecule `COc1ccc(S(=O)(=O)N(CC(C)C)CC(O)C(Cc2ccc(NCc3ccc(-c4ccc(-c5sc6c(c5C(=O)O)CC(C)(C)CC6)cc4)cc3)cc2)NC(=O)OC2COC3(C)OCCC23)cc1` (stereo not drawn) [Compound I-285] had a pIC50 of 8.11.

For `CNC(=O)c1ccc(CNc2ccc(CC(NC(=O)OC3COC4(C)OCCC34)C(O)CN(CC(C)C)S(=O)(=O)c3ccc(OC)cc3)cc2)c(-c2sc3c(c2C(=O)O)CC(C)(C)CC3)c1` (stereo not drawn) [Compound I-416], the pIC50 was 8.79.

The molecule `COc1ccc(S(=O)(=O)N(CC(C)C)CC(O)C(Cc2ccc(OC3CCN(c4ccc(C#N)cc4-c4sc5c(c4C(=O)O)CC(C)(C)CC5)CC3)cc2)NC(=O)OC2COC3(C)OCCC23)cc1` (stereo not drawn) [Compound I-201] gave a pIC50 of 7.99. In turn, `CC(C)CN(C[C@@H](O)[C@H](Cc1ccccc1)NC(=O)O[C@H]1CO[C@@]2(C)OCC[C@@H]12)S(=O)(=O)c1ccc2nc(NCc3sc4c(c3C(=O)O)CC(C)(C)CC4)sc2c1` [Compound I-26] gave a pIC50 of 8.70. Against the preceding molecule, the pIC50 is 0.71 log units higher. With `COc1ccc(S(=O)(=O)N(CC(C)C)CC(O)C(Cc2ccc(N(CCCc3ccccc3)Cc3ccccc3-c3sc4c(c3C(=O)O)CC(C)(C)CC4)cc2)NC(=O)OC2COC3(C)OCCC23)cc1` (stereo not drawn) [Compound I-426], the pIC50 is 8.09. This pIC50 lies 0.61 log units lower than the previous one.
